Like-named read-outs stand apart in the source and are kept apart here.
What was measured:
[1] = system: HeLa cells; test: Compound screen by flow cytometry: HeLa cell count as surrogate readout of cell viability (z-scoreHeLa); type: cell-based, human; settings: for cell count rep 1 / cell count rep 2 / cell count rep 3 / z-scoreHeLa mean / z-scoreHeLa rep 1 / z-scoreHeLa rep 2 / z-scoreHeLa rep 3: HeLa cell count; for cell count rep 1 / z-scoreHeLa rep 1: replicate 1; for cell count rep 2 / z-scoreHeLa rep 2: replicate 2; for cell count rep 3 / z-scoreHeLa rep 3: replicate 3; for z-scoreHeLa mean: mean of 3 replicates
How it was run: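 HeLa cells were infected with GFP-MRSA (mean MOI 6.8 ± 4.6) for 1 h, and extracellular bacteria were killed with 30 µg/ml gentamicin. Cells were then incubated overnight with kinase inhibitors in 5 µg/ml gentamicin, in triplicate against DMSO controls. Flow-cytometric cell count served as a viability surrogate, expressed as a plate z-score.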

[2] = system: intracellular MRSA; type: cell-based, Staphylococcus aureus; settings: for %GFP+ rep 1 / %GFP+ rep 2 / %GFP+ rep 3 / z-scoreMRSA+ mean / z-scoreMRSA+ rep 1 / z-scoreMRSA+ rep 2 / z-scoreMRSA+ rep 3: MRSA-infected HeLa cells; for %GFP+ rep 1 / z-scoreMRSA+ rep 1: replicate 1; for %GFP+ rep 2 / z-scoreMRSA+ rep 2: replicate 2; for %GFP+ rep 3 / z-scoreMRSA+ rep 3: replicate 3; for z-scoreMRSA+ mean: mean of 3 replicates
How it was run: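 HeLa cells infected with GFP-MRSA (MOI ~6.8), gentamicin-cleared, then incubated overnight at 37°C with inhibitors plus 5 µg/ml gentamicin; DMSO as negative control, triplicates. Flow cytometry gave % GFP-positive cells and cell count (viability surrogate); hits by plate z-score (MRSA ≤ -2, HeLa count ≥ -3).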

[3] = Yes/No: effect without cell death

Row | SMILES | cell count rep 1 ([1]; PKIS compounds raw data) | cell count rep 2 ([1]; PKIS compounds raw data) | cell count rep 3 ([1]; PKIS compounds raw data) | cell death ([1]; Yes/No call from z-scoreHeLa) | z-scoreHeLa mean ([1]; compound screen) | z-scoreHeLa rep 1 ([1]; compound screen) | z-scoreHeLa rep 2 ([1]; compound screen) | z-scoreHeLa rep 3 ([1]; compound screen) | %GFP+ rep 1 ([2]; PKIS compounds raw data) [%] | %GFP+ rep 2 ([2]; PKIS compounds raw data) [%] | %GFP+ rep 3 ([2]; PKIS compounds raw data) [%] | effect ([2]; Yes/No call from z-scoreMRSA+) | hit [2, 3] | z-scoreMRSA+ mean ([2]; compound screen) | z-scoreMRSA+ rep 1 ([2]; compound screen) | z-scoreMRSA+ rep 2 ([2]; compound screen) | z-scoreMRSA+ rep 3 ([2]; compound screen) | further results
1 | CC(C)(C)c1ccc2nccc(Nc3cccc(O)c3)c2c1 [GW856795X] |  |  |  |  |  |  |  |  |  |  |  |  |  |  |  |  |  | cell count rep 1 ([1]; PKIS compound screen raw data): 35017; cell count rep 2 ([1]; PKIS compound screen raw data): 26624; cell count rep 3 ([1]; PKIS compound screen raw data): 35940; z-scoreHeLa mean ([1]; PKIS compound screen): 0.00181; z-scoreHeLa rep 1 ([1]; PKIS compound screen): 2.26; z-scoreHeLa rep 2 ([1]; PKIS compound screen): -1.52; z-scoreHeLa rep 3 ([1]; PKIS compound screen): -0.73; cell death ([1]; PKIS compound screen, Yes/No call on z-scoreHeLa): No; %GFP+ rep 1 ([2]; PKIS compound screen raw data): 14.7%; %GFP+ rep 2 ([2]; PKIS compound screen raw data): 17.0%; %GFP+ rep 3 ([2]; PKIS compound screen raw data): 17.5%; z-scoreMRSA+ mean ([2]; PKIS compound screen): -0.72; z-scoreMRSA+ rep 1 ([2]; PKIS compound screen): -1.00; z-scoreMRSA+ rep 2 ([2]; PKIS compound screen): -0.46; z-scoreMRSA+ rep 3 ([2]; PKIS compound screen): -0.70; hit ([2]; PKIS compound screen, Yes/No call (effect without cell death)): No; effect ([2]; PKIS compound screen, Yes/No call on z-scoreMRSA+): No
2 | Nc1ncc(-c2cccc(S(N)(=O)=O)c2)c2scc(-c3ccc(F)c(Cl)c3)c12 [GW856804X] | 4238 | 7246 | 7870 | No | 0.73 | -0.49 | 2.25 | 0.43 | 11.3 | 12.3 | 12.2 | No | No | -0.70 | -0.60 | -0.40 | -1.09 | 
3 | Cc1cccc(-c2nc(Nc3ccc4[nH]ncc4c3)c3ccccc3n2)n1 [GW857175X] | 2034 | 1268 | 3042 | No | -2.21 | -2.48 | -2.27 | -1.88 | 13.1 | 11.5 | 12.7 | No | No | -0.54 | -0.0227 | -0.67 | -0.94 | 

Reference: paper PMC10999543, “Identification of kinase modulators as host-directed therapeutics against intracellular methicillin-resistant Staphylococcus aureus” (Frontiers in Cellular and Infection Microbiology, 2024)
